Experimental data as given in patent US20070073039A1, “Peptides that inhibit viral infections” (priority 2005, published 2007).
Like-named read-outs stand apart in the source and are kept apart here.

Assays:
[1] = system: JFH-1 virus; experiment: Interferon treatment of Huh-7.5.1 cells before JFH-1 infection; format: cell-based, Hepatitis C virus (JFH-1); settings: 5, 50 and 500 IU/mL; Huh-7.5.1, MOI 0.3; 3 days
Method: The viral inoculum was removed 4 hours later and the cells were further cultured with interferon for 3 days. At that time cells were harvested, RNA was isolated and analyzed by real-time RT-PCR to determine the intracellular HCV RNA levels. Bars represent intracellular HCV RNA levels expressed as a % of the levels obtained in the control infections.
Interferon treatment. […] The inoculum was removed after 3 hours of incubation at 37° C., and fresh DMEM supplemented with the indicated doses of IFN was added to the cells. The efficiency of the infection was monitored 72 hours later by quantitative RT-PCR.

[2] = system: HCV; experiment: Median effective concentration (EC50) by intracellular HCV RNA RT-QPCR; format: cell-based, Hepatitis C virus (JFH-1); settings: Huh-7.5.1 cells, MOI 0.1
Method: (§1) To determine the median effective concentration (EC50) of peptide #1, peptide stock solution (3.6 mM in DMSO) was serially 2-fold diluted in DMSO. An aliquot of peptide from each dilution was then diluted 1:100 in complete growth medium and mixed with equal volume of virus supernatant. The virus-peptide mixture was then used to infect Huh-7.5.1 cells (MOI=0.1). After adsorption for 4 hours at 37° C., the virus-peptide inoculum was removed. The cells were washed 2 times, overlaid with 120 μL fresh growth medium and incubated at 37° C. for 3 days. Cells were lysed and subjected to RNA analysis. The HCV RNA transcript level was measured by real time RT-QPCR and normalized to cellular GAPDH levels. The inhibition of HCV infection was calculated by comparing the intracellular HCV RNA transcript between the peptide treatment and solvent control.
as §1, with “(EC50) of the L- and D-form” for “(EC50)”, “serially diluted” for “serially”, “2-fold” for “2-fold diluted”

[3] = Serum stability of L- and D-type peptides (10% FBS, 37° C., antiviral readout); format: in vitro ADME; settings: within 1 hour
Source text: Peptides composed of L-amino acids are susceptible to proteolysis, which could shorten their half-life and, thus, their biological activity. To examine this possibility and to determine if specific peptide-viral protein interactions mediate antiviral activity, peptide 1 was synthesized using all D-amino acids, purified to >95% homogeneity, and its antiviral activity and serum stability were compared with a similarly pure preparation of the L-type version of peptide #1. Both L- and D-type peptides were diluted 1:100 in complete growth medium (10% FBS) and mixed with an equal volume of viral supernatant.
In addition, to compare the serum stability of the L- and D-type peptides, the diluted peptide was incubated at 37° C. for 1 hour, 2 hours and 4 hours before mixing with viral supernatant. The virus-peptide mixture was then used to infect Huh-7.5.1 cells (MOI=0.1). After adsorption for 4 hours at 37° C., the virus-peptide inoculum was removed. The cells were washed 2 times, overlaid with 120 μL fresh growth medium and incubated at 37° C. for 3 days. Cells were lysed and subjected to RNA analysis. The HCV RNA transcript level was measured by real time RT-QPCR and normalized to cellular GAPDH levels. […] Thus, in addition to low immunogenicity and possible oral bioavailability, peptides composed of D-amino acids have the potential therapeutic advantage of enhanced serum stability.

[4] = Preliminary in vivo toxicity in mice
Method: As a preliminary measurement of the in vivo cytotoxicity of the peptides 1, 2 and 3 (see Table 4) a group of three mice (BALB/c mice, 7 weeks old, about 23 g) were each injected with 92 μg L-type peptide 1 ( ˜4 mg/kg) in 200 μL PBS (spun 14,000 rpm for 3 minutes before injection). In the control group, each of three mice was given 200 μL PBS containing 5% DMSO. The mice were monitored for acute toxicity during the first 3 hours after injection.
No change in appearance, activity or behavior was observed. The mice were then weighed on days 0, 3, 5, 7 and 10. Peptide-injected mice gained weight at the same rate as the controls.

[5] = system: Dengue-2; experiment: Dengue-2 infection of Vero cells, Intracellular FACS Assay; format: cell-based; settings: 20 μM
How it was run: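 Vero cells infected with Dengue-2 alongside increasing peptide concentrations (DMSO control); virus and peptide washed off 2 h post-infection. At day 3, intracellular staining for Dengue Env, capsid or tubulin (plus isotype control), read by FACS.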

[6] = system: Huh-7.5.1 cells; experiment: Toxicity on Huh-7.5.1 cells incubated with peptides
[7] = MTT cytotoxicity assay; format: cell-based; settings: human, hepatocyte cell lines, read-out: LD50 (MTT cytotoxicity)
Method: Peptide cytotoxicity was measured by MTT cytotoxicity assay based on the protocol provided in the ATCC MTT assay kit (Cat #30-1010K). In brief, 5000-10,000 cells were seeded per well in a 96 well plate. Following overnight growth, 100 μL fresh medium plus 20 μL of 2-fold serially diluted peptide was added. Media without peptides was added to at least 3 wells as untreated controls. The cells were then incubated for 72 hours at 37° C., 5% CO2. After this incubation, 1/10 volume of MTT solution ([…] in PBS) was added to each well, and the cells were returned to the incubator. Two hours later, the medium was removed, 150 μL DMSO was added to dissolve the purple precipitate formazan, and the plate was shaken at 150 rpm for 10 minutes. Absorbance at 570 nm less background at 670 nm is a reliable measure of […]. Cytotoxicity (LD50) of individual peptides was defined as the peptide concentration that caused 50% cell death.

[8] = system: Dengue-2; experiment: Dengue-2 infection of Vero cells, Enzyme-linked Immunosorbent Assay; format: cell-based; settings: 1.25 μM, 5 days
[9] = system: Dengue-2; experiment: as above; format: cell-based; settings: for Inhibition of Dengue Infection, α-Capsid 9A7 / Inhibition of Dengue Infection, α-DEN ENV: Vero cells, 5 days
Method: Enzyme-linked Immunosorbent Assay. Vero cells (80,000 cells/well/ml) were seeded for 24 h pre-infection in 24-well plates. Cells were exposed to Dengue-2 (derived from Vero cells) in the presence of increasing concentration of peptide (or DMSO as control). Viruses and peptide were not removed (cells were not washed) throughout the incubation. Infection was analyzed after 5 days using ELISA that measured the amounts of Dengue-2 capsid released in the supernatant of infected Vero cells.

[10] = system: HCV; experiment: HCV focus reduction assay; format: cell-based, Hepatitis C virus (JFH-1); settings: 72 h; working concentration 18.4-27.5 μM per peptide; Mock 51
How it was run: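 Huh-7.5.1 cells infected with 50 ffu HCV premixed with peptide (~20 μM screen; derivatives at 18, 6 and 2 μM), 4 h adsorption at 37 °C, then washed and cultured 3 days. Foci immunostained for NS5A and counted by fluorescence microscopy. Values are % of mock with 0.5% DMSO solvent.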

[11] = system: HCV; experiment: Intracellular HCV RNA by real time RT-QPCR after infection of Huh-7.5.1 cells with and without peptide; format: cell-based, Hepatitis C virus (JFH-1); settings: working concentration 18.4-27.5 μM per peptide
Method: To accurately quantify the inhibitory effect of the selected peptides on HCV infection, intracellular HCV RNA was measured after infection by real time RT-QPCR with and without peptide treatment. The peptide stock solution was diluted 1:100 and mixed with equal volume of viral supernatant (propagated from day 18 virus preparation post transfection) to a final concentration approximately 20 μM. The virus with peptide or 0.5% DMSO solvent control was then used to infect Huh-7.5.1 cells at a multiplicity of infection (MOI) of 0.1. After an adsorption for 4 hours at 37° C., the inoculum was removed. The cells were washed 2 times, overlaid with 120 μL fresh growth medium and incubated at 37° C. At the indicated time points, total cellular RNA was isolated by the guanidine thiocyanate method. The HCV RNA transcript level was measured by real time RT-QPCR with the primers 5′—
normalized to cellular GAPDH levels.
To define the antiviral action of peptide #1 (SEQ ID NO:43), the antiviral activity of a series of N-terminal and C-terminal truncations of peptide 1 was analyzed using the focus reduction assay and by measuring the reduction in intracellular HCV RNA as described.

[12] = system: Dengue-2; experiment: Dengue-2 Fluorescent Foci Assay; format: cell-based; settings: FIG. 19; 20 μM
Method: Fluorescent Foci Assay: Vero cells were seeded for 24 h pre-infection in 96-well plates. Cells were exposed to Dengue-2 in the presence of increasing concentrations of peptide (or DMSO as control). Viruses and peptide were washed away 2 h post-infection. Supernatants were collected every 3 days post-infection and added to fresh Vero cells for fluorescent foci assay. Newly infected Vero cells were fixed with 4% formaldehyde after 3 days. Cells were then stained with Dengue Env antibodies followed by Alexa-fluor dye conjugated secondary antibodies. Foci were counted using a fluorescent microscope.
Fluorescent Foci Assay. Vero cells were seeded for 24 hours pre-infection in 96-well plates. Cells were exposed to Dengue-2 in the presence of increasing concentrations of peptide (or DMSO as control). Viruses and peptide were washed away 2 hours post-infection. Supernatants were collected every 3 days post-infection and added to fresh Vero cells for fluorescent foci assay. Newly infected Vero cells were fixed with 4% formaldehyde after 3 days. Cells were then stained with antibodies directed to the Dengue Envelop protein followed by Alexa-fluor dye conjugated secondary antibodies. Foci were counted using a fluorescent microscope.

IFNγ: human IFNγ (PBL Biomedical Lab, Piscataway, N.J.)
Inhibition of HCV infection by interferons [1]: efficiently inhibit HCV infection

CC[C@H](C)[C@H](NC(=O)[C@H](CC(=O)O)NC(=O)[C@H](CCCNC(=N)N)NC(=O)[C@H](CC(C)C)NC(=O)[C@H](Cc1c[nH]c2ccccc12)NC(=O)[C@@H](N)CO)C(=O)N[C@@H](Cc1c[nH]c2ccccc12)C(=O)N[C@@H](CC(=O)O)C(=O)N[C@@H](Cc1c[nH]c2ccccc12)C(=O)N[C@H](C(=O)N[C@@H](CS)C(=O)N[C@@H](CCC(=O)O)C(=O)N[C@H](C(=O)N[C@@H](CC(C)C)C(=O)N[C@@H](CO)C(=O)N[C@@H](CC(=O)O)C(=O)N[C@@H](Cc1ccccc1)C(=O)N[C@@H](CCCCN)C(=O)O)C(C)C)[C@@H](C)CC [Peptide 1]
EC50 ([2]; FIG. 12B-C, 3 days, read-out: EC50 of the L- and D-forms of peptide 1): ~1 µM | EC50 ([2]; peptide with virus 4 hours, HCV RNA after 3 days, listed as peptide 1, read-out: EC50 against HCV infection): 0.3 µM | EC50 ([2]; peptide with virus 4 hours, HCV RNA after 3 days, listed as peptide #1, read-out: EC50 against HCV infection): ~0.3 µM | EC50 ([2]; peptide with virus 4 hours, HCV RNA after 3 days, read-out: EC50 against HCV infection): 0.289 µM | Antiviral activity lost on incubation in 10% FBS at 37° C. [3]: approximately 95% | In vivo toxicity observation ([4]; 92 μg ( ˜4 mg/kg) in 200 μL PBS, acute toxicity first 3 hours, weight to day 10): Peptides 1, 2 and 3 are Nontoxic in C57BL/6 Mice | Weight(g) (d.0) ([4]; day 0, ˜4 mg/kg injected): 22.2 g | Weight(g) (d.3) ([4]; day 3): 22.3 g | Weight(g) (d.5) ([4]; day 5): 22.8 g | Weight(g) (d.7) ([4]; day 7): 23.1 g | Weight(g) (d.10) ([4]; day 10): 23.5 g | % of Dead cells PI ([5]; propidium iodide staining, Vero cells 3 days post-infection): 1.88% | Evidence of toxicity / cytotoxicity [6]: without evidence of cytotoxicity | CC50 at 72 h ([7]; with FBS): 26.7 µM | CC50 at 72 h ([7]; without FBS): 3.8 µM

LRDIWDWICEVLSDFK [^N-16mer]
Inhibition of Dengue Infection, α-DEN ENV [8]: 10.24% | Inhibition of Dengue Infection, α-Capsid 9A7 ([9]; 1.25 μM): 12.82% | Inhibition of Dengue Infection, α-Capsid 9A7 ([9]; 5 μM): 16.01% | Inhibition of Dengue Infection, α-DEN ENV ([9]; 5 μM): 33.64% | Inhibition of Dengue Infection, α-Capsid 9A7 ([9]; 20 μM): 82.2% | Inhibition of Dengue Infection, α-DEN ENV ([9]; 20 μM): 74.83% | Inhibition of Dengue viral infection as detected by ELISA ([9]; FIG. 17, 20 μM): about 84% | Focus Reduction (72 h) [10]: 125 | Inhibition of Dengue viral infection as detected by FACS ([5]; FIG. 18): about 80% | Fold Inhibition on HCV RNA (24 h) ([11]; 24 h): 0.7 fold | Fold Inhibition on HCV RNA (72 h) ([11]; 72 h): 0.6 fold | Inhibition of Dengue viral infection by immunofluorescence assay [12]: about 90%
